# According to publication PMC3729217 (Chembiochem : a European journal of chemical biology, 2010):
# Key:
# PKCδ-ECFP = PKCδ-ECFP (Homo sapiens, UniProt Q05655); assay: Plasma membrane translocation of PKCδ-ECFP in transfected MCF-7 cells; format: cell-based, rat; settings: MCF-7 cells expressing PKCδ-ECFP, stimulated with 40 μM, 37°C
# PKCε-EGFP = molecular target: T1, PKCε-EGFP (Rattus norvegicus, UniProt P09216); assay: Plasma membrane translocation of PKCε-EGFP in transfected MCF-7 cells; format: cell-based; settings: MCF-7 cells expressing PKCε-EGFP, stimulated with 40 μM, 37°C
# T1 sequence (P09216 1-737): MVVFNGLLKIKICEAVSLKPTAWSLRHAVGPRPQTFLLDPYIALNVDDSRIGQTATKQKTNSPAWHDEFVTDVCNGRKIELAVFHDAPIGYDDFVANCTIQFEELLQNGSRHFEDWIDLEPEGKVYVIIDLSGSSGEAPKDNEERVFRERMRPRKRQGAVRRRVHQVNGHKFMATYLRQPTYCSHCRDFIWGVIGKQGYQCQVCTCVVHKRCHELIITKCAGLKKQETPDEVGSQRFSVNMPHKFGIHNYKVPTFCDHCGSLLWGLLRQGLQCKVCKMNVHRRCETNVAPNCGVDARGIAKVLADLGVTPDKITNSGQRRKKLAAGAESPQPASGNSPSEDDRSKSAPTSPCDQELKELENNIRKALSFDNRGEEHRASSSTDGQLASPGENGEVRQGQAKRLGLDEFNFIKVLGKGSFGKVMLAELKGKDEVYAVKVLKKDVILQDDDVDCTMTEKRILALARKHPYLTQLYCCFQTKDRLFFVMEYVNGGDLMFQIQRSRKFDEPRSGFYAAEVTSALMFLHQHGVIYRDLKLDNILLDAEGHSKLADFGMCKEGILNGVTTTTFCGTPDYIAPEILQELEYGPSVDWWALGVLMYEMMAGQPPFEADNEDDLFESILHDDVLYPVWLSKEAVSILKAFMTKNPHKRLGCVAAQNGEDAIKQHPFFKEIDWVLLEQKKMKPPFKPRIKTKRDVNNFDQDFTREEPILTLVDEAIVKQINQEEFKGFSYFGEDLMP
# PKCα-EGFP = PKCα-EGFP (Rattus norvegicus, UniProt P05696); assay: Plasma membrane translocation of PKCα-EGFP in transfected MCF-7 cells; format: cell-based; settings: MCF-7 cells expressing PKCα-EGFP, stimulated with 40 μM, 37°C
# Sequence of PKCδ-ECFP (Q05655 whole entry): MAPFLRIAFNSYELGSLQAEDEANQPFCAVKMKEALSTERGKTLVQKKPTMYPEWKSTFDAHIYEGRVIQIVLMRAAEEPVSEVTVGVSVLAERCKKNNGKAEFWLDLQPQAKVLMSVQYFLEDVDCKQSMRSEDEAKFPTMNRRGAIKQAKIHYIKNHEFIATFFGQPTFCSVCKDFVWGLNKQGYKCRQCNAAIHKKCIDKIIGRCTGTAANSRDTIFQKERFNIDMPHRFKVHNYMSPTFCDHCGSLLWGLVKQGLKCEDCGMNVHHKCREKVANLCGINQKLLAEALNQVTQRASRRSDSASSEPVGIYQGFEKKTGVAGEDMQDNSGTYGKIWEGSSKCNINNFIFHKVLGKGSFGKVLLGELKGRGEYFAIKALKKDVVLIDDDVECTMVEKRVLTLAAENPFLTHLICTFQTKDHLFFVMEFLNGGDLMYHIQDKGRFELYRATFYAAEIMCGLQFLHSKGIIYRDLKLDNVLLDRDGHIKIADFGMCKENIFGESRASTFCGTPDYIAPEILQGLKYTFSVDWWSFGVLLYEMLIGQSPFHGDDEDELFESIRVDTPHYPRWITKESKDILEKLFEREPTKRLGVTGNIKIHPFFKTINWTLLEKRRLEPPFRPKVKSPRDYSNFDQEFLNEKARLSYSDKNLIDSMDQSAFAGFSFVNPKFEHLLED
smiles,measurement,setting,value
"CCCCCCCCCCCCCC(=O)O[C@@H]1[C@@H](C)[C@@]2(O)[C@@H](C=C(CO)C[C@]3(O)C(=O)C(C)=C[C@@H]23)[C@@H]2C(C)(C)[C@]12OC(C)=O [PMA, phorbol 12-myristate 13-acetate]","t1/2, half-time of plasma membrane localization",PKCδ-ECFP,47 ± 22 s
same,"t1/2, half-time of plasma membrane localization",PKCε-EGFP,31 ± 18 s
same,"t1/2, half-time of plasma membrane localization",PKCα-EGFP,547 ± 192 s
